The source of these data is patent US8410302B2, “Methoxyimino compounds and fungicide composition comprising same” (Kyung Nong Corporation, priority 2007, dated 2013).

Structures are written as SMILES. Read-outs that look alike come from different tables or passages of the source.

Experiment [1] relates to Pyricularia oryzae Carvara KA301. As to the kind of experiment: whole plant or invertebrate. The format is in vivo. To be noted: for RCB control value (C.V.): rice blast; for pest or weed control at 2 ppm / pest or weed control at 10 ppm / pest or weed control at 50 ppm / pest or weed control at 100 ppm: Pyricularia oryzae, read-out: RCB control value (C.V.).
The subject of a further experiment is Botrytis cinerae. In words: Fungicidal activity against cucumber gray mold rot (CGM) disease, control value. It counts as in vivo. The conditions noted are these: 100 ppm; for pest or weed control at 100 ppm: Botrytis, read-out: CGM control value (C.V.). On the procedure:
Botrytis cinerae, which was isolated from cucumber infected thereby, was inoculated on a potato agar medium (PEC) and cultured under a 12L/12D cycle at 25° C. for 15 days to form spore. The spores were scraped, filtered through a gauze and then suspended in Potato Dextrose broth at a concentration of 1×10^6 spore/ml. The spore suspension was sprayed on a cucumber plant having one leaf. The cucumber plant was held in a humidified room at 20° C. for 3 days. L.A. on a leaf was measured to calculate a C.V.

A further experiment concerns Phytophthora infestans. In words: whole plant or invertebrate. The format is in vivo. To be noted: for TLB control value (C.V.): tomato late blight; for pest or weed control at 2 ppm / pest or weed control at 10 ppm / pest or weed control at 50 ppm / pest or weed control at 100 ppm: Phytophthora infestans, in Solanum lycopersicum, read-out: TLB control value (C.V.).
Another experiment has as its system Puccinia recondita. As to the kind of experiment: Fungicidal activity against wheat leaf rust (WLR) disease, control value. To be noted: for pest or weed control at 2 ppm / pest or weed control at 10 ppm / pest or weed control at 50 ppm / pest or weed control at 100 ppm: read-out: WLR control value (C.V.). It counts as in vivo.
For a further experiment, the system named is Erysiphae graminis. As to the kind of experiment: Fungicidal activity against barley powdery mildew (BPM) disease, control value. The format is in vivo. To be noted: for pest or weed control at 2 ppm / pest or weed control at 10 ppm / pest or weed control at 50 ppm / pest or weed control at 100 ppm: 168 h, read-out: BPM control value (C.V.).
A further experiment concerns Rhizoctonia solani AG-1. As to the kind of experiment: Fungicidal activity against rice sheath blight (RSB) disease, control value. To be noted: for RSB control value (C.V.): rice sheath blight; for pest or weed control at 2 ppm / pest or weed control at 10 ppm / pest or weed control at 50 ppm / pest or weed control at 100 ppm: Rhizoctonia solani, AG1, in Oryza sativa, read-out: RSB control value (C.V.).

[2] abbreviates: Hordeum vulgare, 50 ppm, barley powdery mildew.
The mark [3] stands for this setting: Hordeum vulgare, 100 ppm, barley powdery mildew.
The mark [4] stands for this setting: Hordeum vulgare, 2 ppm, barley powdery mildew.
The mark [5] stands for this setting: Hordeum vulgare, 10 ppm, barley powdery mildew.

For `CNC(=O)/C(=N/OC)c1ccccc1CON=C(C)c1ccc(C=C(Cl)Cl)cc1` [Example 22, (E)-2-[[[[[2-[4-(2,2-dichlorovinyl)phenyl](1-methyl)methylidene]amino]oxy]methyl]phenyl]-2-methoxyimino-N-methylacetamide], the “RCB control value (C.V.)” value in experiment [1] (2 ppm), in experiment [1] (10 ppm), in experiment [1] (50 ppm) and in experiment [1] (100 ppm) was 100% throughout. Besides, the “CGM control value (C.V.)” value in the experiment with Botrytis cinerae (cucumber gray mold rot) is on record as 45%. For the same compound, the “TLB control value (C.V.)” value with Phytophthora infestans (2 ppm) is 90%; in the experiment with Phytophthora infestans (10 ppm), 100%; with Phytophthora infestans (50 ppm), 100%; in the experiment on Phytophthora infestans (100 ppm) it was 100%. In addition, the “WLR control value (C.V.)” value stood at 100% in the experiment on Puccinia recondita (2 ppm, wheat leaf rust); 100% in the experiment with Puccinia recondita (10 ppm, wheat leaf rust); 100% in the experiment with Puccinia recondita (50 ppm, wheat leaf rust); 100% in the experiment with Puccinia recondita (100 ppm, wheat leaf rust). The “BPM control value (C.V.)” value with Erysiphae graminis (2 ppm, barley powdery mildew) turned out to be 98%; in the experiment with Erysiphae graminis (10 ppm, barley powdery mildew), 100%; in the experiment with Erysiphae graminis (50 ppm, barley powdery mildew), 100%; in the experiment on Erysiphae graminis (100 ppm, barley powdery mildew) it was 100%. Moreover, the “RSB control value (C.V.)” value is given as 90% with Rhizoctonia solani AG-1 (2 ppm), 98% in the experiment on Rhizoctonia solani AG-1 (10 ppm), 100% in the experiment on Rhizoctonia solani AG-1 (50 ppm) and 100% with Rhizoctonia solani AG-1 (100 ppm).

Consider `CO/N=C(/C(=O)OC)c1ccccc1COc1ccc(C=C(Br)Br)cc1Br` [Example 77, methyl-(E)-2-(2-((2-bromo-4-(2,2-dibromovinyl)phenoxy)methyl)phenyl)-2-methoxyiminoacetate], for which the pest or weed control at 2 ppm in experiment [1] came out at 30%; with Phytophthora infestans, 70%; in the experiment with Puccinia recondita (Puccinia recondita, 2 ppm), 95%; with Erysiphae graminis (2 ppm), 90%; in the experiment with Rhizoctonia solani AG-1, 65%. In addition, the pest or weed control at 10 ppm in experiment [1] turned out to be 90%; in the experiment with Phytophthora infestans, 90%; in the experiment with Puccinia recondita (Puccinia recondita, 10 ppm) it was 100%; in the experiment on Erysiphae graminis (10 ppm) it was 100%; in the experiment with Rhizoctonia solani AG-1, 98%. For the same compound, the pest or weed control at 50 ppm was 100% in experiment [1]; 98% in the experiment on Phytophthora infestans; 100% with Puccinia recondita (Puccinia recondita, 50 ppm); 100% with Erysiphae graminis (50 ppm); 100% with Rhizoctonia solani AG-1. In addition, the pest or weed control at 100 ppm in experiment [1] was 100%; in the experiment with Botrytis cinerae, 70%; in the experiment on Phytophthora infestans, 100%; with Puccinia recondita (Puccinia recondita, 100 ppm), 100%; in the experiment with Erysiphae graminis (100 ppm) it was 100%; with Rhizoctonia solani AG-1 it was 100%.

`CNC(=O)/C(=N/OC)c1ccccc1CON=C(C)c1cccc(C=C(F)Cl)c1` [Example 32, (E)-2-[[[[[2-[3-(2-chloro-2-fluorovinyl)phenyl](1-methyl)methylidene]amino]oxy]methyl]phenyl]-2-methoxyimino-N-methylacetamide]: the entries for the “RCB control value (C.V.)” value in experiment [1] (50 ppm) and in experiment [1] (100 ppm) were 90% and 97%, respectively. The “CGM control value (C.V.)” value in the experiment with Botrytis cinerae (cucumber gray mold rot) stood at 34%. Besides, the “TLB control value (C.V.)” value is given as 55% with Phytophthora infestans (50 ppm) and 93% in the experiment on Phytophthora infestans (100 ppm). In addition, the “WLR control value (C.V.)” value in the experiment with Puccinia recondita (100 ppm, wheat leaf rust) is given as 82%. In addition, the “BPM control value (C.V.)” value in the experiment with Erysiphae graminis (100 ppm, barley powdery mildew) is 80%. For the same compound, in the experiment with Rhizoctonia solani AG-1 (100 ppm), the “RSB control value (C.V.)” value worked out at 65%.

In the case of `CO/N=C(/C(=O)OC)c1ccccc1COc1cccc(C=C(F)Cl)c1` [Example 11, methyl-(2E)-2-(2-((3-(2-chloro-2-fluorovinyl)phenoxy)methyl)phenyl)-2-methoxyiminoacetate], the pest or weed control at 50 ppm in experiment [1] stood at 70%; in the experiment with Puccinia recondita (50 ppm, wheat leaf rust), 90%; in the experiment on Erysiphae graminis (setting [2]) it was 60%. For the same compound, the pest or weed control at 100 ppm stood at 95% in experiment [1]; 43% with Botrytis cinerae (cucumber gray mold rot); 60% in the experiment on Phytophthora infestans; 100% with Puccinia recondita (100 ppm, wheat leaf rust); 90% with Erysiphae graminis (setting [3]); 30% with Rhizoctonia solani AG-1. Further, the pest or weed control at 10 ppm in the experiment with Puccinia recondita (10 ppm, wheat leaf rust) turned out to be 40%.

Regarding `CNC(=O)/C(=N/OC)c1ccccc1COc1ccc(C)cc1C=C(Cl)Cl` [Example 46, (E)-2-(2-((2-(2,2-dichlorovinyl)-4-methylphenoxy)methyl)phenyl)-2-methoxyimino-N-methylacetamide], the pest or weed control at 2 ppm in experiment [1] was 95%; in the experiment on Phytophthora infestans, 96%; with Puccinia recondita (2 ppm, wheat leaf rust) it was 100%; in the experiment with Erysiphae graminis (setting [4]) it was 100%; in the experiment on Rhizoctonia solani AG-1, 98%. For the same compound, the pest or weed control at 10 ppm turned out to be 100% in experiment [1]; 100% in the experiment on Phytophthora infestans; 100% in the experiment with Puccinia recondita (10 ppm, wheat leaf rust); 100% with Erysiphae graminis (setting [5]); 100% with Rhizoctonia solani AG-1. In addition, the pest or weed control at 50 ppm is 100% in experiment [1]; 100% with Phytophthora infestans; 100% in the experiment with Puccinia recondita (50 ppm, wheat leaf rust); 100% with Erysiphae graminis (setting [2]); 100% with Rhizoctonia solani AG-1. Further, the pest or weed control at 100 ppm in experiment [1] was 100%; in the experiment on Botrytis cinerae (cucumber gray mold rot), 30%; with Phytophthora infestans it was 100%; in the experiment on Puccinia recondita (100 ppm, wheat leaf rust), 100%; in the experiment on Erysiphae graminis (setting [3]) it was 100%; with Rhizoctonia solani AG-1, 100%.

Regarding `CNC(=O)/C(=N/OC)c1ccccc1COc1ccc(C=C(Cl)Cl)cc1Br` [Example 54, (E)-2-(2-((2-bromo-4-(2,2-dichlorovinyl)phenoxy)methyl)phenyl)-2-methoxyimino-N-methylacetamide], the pest or weed control at 2 ppm in experiment [1] turned out to be 30%; in the experiment with Phytophthora infestans it was 93%; in the experiment with Puccinia recondita (Puccinia recondita, 2 ppm), 100%; in the experiment on Erysiphae graminis (2 ppm) it was 100%; with Rhizoctonia solani AG-1, 90%. For the same compound, the pest or weed control at 10 ppm in experiment [1] was 90%; in the experiment with Phytophthora infestans, 95%; in the experiment with Puccinia recondita (Puccinia recondita, 10 ppm), 100%; in the experiment on Erysiphae graminis (10 ppm), 100%; in the experiment with Rhizoctonia solani AG-1, 98%. Besides, the pest or weed control at 50 ppm is 100% in experiment [1]; 100% with Phytophthora infestans; 100% with Puccinia recondita (Puccinia recondita, 50 ppm); 100% with Erysiphae graminis (50 ppm); 100% in the experiment with Rhizoctonia solani AG-1. Further, the pest or weed control at 100 ppm in experiment [1] stood at 100%; in the experiment with Botrytis cinerae it was 65%; with Phytophthora infestans, 100%; in the experiment on Puccinia recondita (Puccinia recondita, 100 ppm), 100%; in the experiment with Erysiphae graminis (100 ppm), 100%; in the experiment with Rhizoctonia solani AG-1 it was 100%.

Turning to `CO/N=C(/C(=O)OC)c1ccccc1COc1cccc(C=C(Cl)Cl)c1Cl` [Example 43, methyl-(E)-2-(2-((2-chloro-3-(2,2-dichlorovinyl)phenoxy)methyl)phenyl)-2-methoxyiminoacetate], the pest or weed control at 2 ppm in experiment [1] was found to be 90%; in the experiment with Phytophthora infestans, 100%; in the experiment on Puccinia recondita (2 ppm, wheat leaf rust), 100%; in the experiment on Erysiphae graminis (setting [4]) it was 100%; in the experiment with Rhizoctonia solani AG-1 it was 90%. The pest or weed control at 10 ppm in experiment [1] worked out at 99%; in the experiment with Phytophthora infestans it was 100%; in the experiment with Puccinia recondita (10 ppm, wheat leaf rust), 100%; in the experiment on Erysiphae graminis (setting [5]) it was 100%; in the experiment on Rhizoctonia solani AG-1, 100%. The pest or weed control at 50 ppm in experiment [1] was determined as 100%; with Phytophthora infestans it was 100%; in the experiment with Puccinia recondita (50 ppm, wheat leaf rust), 100%; with Erysiphae graminis (setting [2]) it was 100%; in the experiment on Rhizoctonia solani AG-1, 100%. Besides, the pest or weed control at 100 ppm in experiment [1] is 100%; in the experiment with Botrytis cinerae (cucumber gray mold rot) it was 0%; in the experiment on Phytophthora infestans, 100%; with Puccinia recondita (100 ppm, wheat leaf rust), 100%; in the experiment with Erysiphae graminis (setting [3]), 100%; in the experiment on Rhizoctonia solani AG-1, 100%.
